# Experimental data as given in ChEMBL document CHEMBL5137008, “Recent advances of antitumor shikonin/alkannin derivatives: A comprehensive overview focusing on structural classification, synthetic approaches, and mechanisms of action” (Eur J Med Chem, 2022).
# Experiments:
# [1] = tested on: B16-F10; assay: Anticancer activity against mouse B16-F10 cells assessed as inhibition of cell proliferation incubated for 48 hrs by MTT assay; format: functional, cell-based; conditions: B16-F10, 48 h
# [2] = Inhibition of bovine brain tubulin polymerization preincubated with compound followed by GTP addition and measured after 20 mins by turbidimetry-based spectrophotometric method; parameters: species or system Bos taurus
# [3] = tested on: SW872; assay: Anticancer activity against human SW872 cells assessed as inhibition of cell growth incubated for 72 hrs by MTT assay; format: functional, cell-based; conditions: SW872, 72 h
# [4] = Anticancer activity against human A875 cells assessed as inhibition of cell growth incubated for 72 hrs by MTT assay; format: functional, cell-based; conditions: A875, 72 h
# [5] = tested on: A549; assay: Anticancer activity against human A549 cells assessed as inhibition of cell growth incubated for 72 hrs by MTT assay; format: functional, cell-based; conditions: A549, 72 h
# [6] = tested on: A549; assay: Antiproliferative activity against human A549 cells assessed as reduction in cell viability incubated for 24 hrs by MTT assay; format: functional, cell-based; conditions: A549, 24 h
# [7] = tested on: HeLa; assay: Antiproliferative activity against human HeLa cells assessed as reduction in cell viability incubated for 24 hrs by MTT assay; format: functional, cell-based
# [8] = tested on: HepG2; assay: Antiproliferative activity against human HepG2 cells assessed as reduction in cell viability incubated for 24 hrs by MTT assay; format: functional, cell-based; conditions: HepG2, 24 h
# [9] = Cytotoxicity against human L02 cells assessed as reduction in cell viability incubated for 24 hrs by MTT assay; format: toxicity, cell-based
# [10] = Anticancer activity against human A875 cells assessed as inhibition of cell growth incubated for 24 hrs by MTT assay; format: functional, cell-based; conditions: A875, 24 h
# [11] = tested on: HepG2; assay: Anticancer activity against human HepG2 cells assessed as inhibition of cell growth incubated for 24 hrs by MTT assay; format: functional, cell-based; conditions: HepG2, 24 h
# [12] = Cytotoxicity against human L02 cells assessed as inhibition of cell growth incubated for 24 hrs by MTT assay; format: toxicity, cell-based
# [13] = Antitubulin activity against bovine brain tubulin polymerization preincubated with compound followed by GTP addition and measured after 20 mins by turbidimetry-based spectrophotometric method; parameters: species or system Bos taurus
# [14] = tested on: HepG2; assay: Antiproliferative activity against human HepG2 cells assessed as inhibition of cell proliferation incubated for 20 hrs by MTT assay; format: functional, cell-based; conditions: HepG2, 20 h
# [15] = Antiproliferative activity against human BGC cells assessed as inhibition of cell proliferation incubated for 20 hrs by MTT assay; format: functional, cell-based
# [16] = tested on: A549; assay: Antiproliferative activity against human A549 cells assessed as inhibition of cell proliferation incubated for 20 hrs by MTT assay; format: functional, cell-based; conditions: A549, 20 h
# [17] = tested on: L02; assay: Antiproliferative activity against human L02 cells assessed as inhibition of cell proliferation incubated for 20 hrs by MTT assay; format: functional, cell-based; conditions: L02, 20 h
# [18] = tested on: HepG2; assay: Antiproliferative activity against human HepG2 cells assessed as inhibition of cell proliferation incubated for 24 hrs by MTT assay; format: functional, cell-based; conditions: HepG2, 24 h
# [19] = tested on: SCC-4; assay: Antiproliferative activity against human SCC-4 cells assessed as inhibition of cell proliferation incubated for 24 hrs by MTT assay; format: functional, cell-based; conditions: SCC-4, 24 h
# [20] = Cytotoxicity against African green monkey VERO cells assessed as inhibition of cell growth incubated for 24 hrs by MTT assay; format: toxicity, cell-based, Chlorocebus sabaeus
# [21] = tested on: MCF7; assay: Antiproliferative activity against human MCF7 cells assessed as inhibition of cell growth incubated for 24 hrs in presence of foetal bovine serum by MTT assay; format: functional, cell-based; conditions: MCF7, 24 h
# [22] = tested on: MDA-MB-231; assay: Antiproliferative activity against human MDA-MB-231 cells assessed as inhibition of cell growth incubated for 24 hrs in presence of foetal bovine serum by MTT assay; format: functional, cell-based; conditions: MDA-MB-231, 24 h
# [23] = tested on: MDA-MB-468; assay: Antiproliferative activity against human MDA-MB-468 cells assessed as inhibition of cell growth incubated for 24 hrs in presence of foetal bovine serum by MTT assay; format: functional, cell-based; conditions: MDA-MB-468, 24 h
# [24] = Cytotoxicity against human MCF-10A assessed as inhibition of cell growth incubated for 24 hrs in presence of foetal bovine serum by MTT assay; format: toxicity, cell-based; conditions: MCF-10A cells
# [25] = tested on: A549; assay: Antiproliferative activity against human A549 cells assessed as inhibition of cell growth incubated for 24 hrs in presence of foetal bovine serum by MTT assay; format: functional, cell-based; conditions: A549, 24 h
# [26] = Cytotoxicity against human L02 cells assessed as inhibition of cell growth incubated for 24 hrs in presence of foetal bovine serum by MTT assay; format: toxicity, cell-based
# [27] = Cytotoxicity against human HEK293T cells assessed as inhibition of cell growth incubated for 24 hrs in presence of foetal bovine serum by MTT assay; format: toxicity, cell-based, HEK-293T
# [28] = tested on: MDA-MB-436; assay: Antiproliferative activity against human MDA-MB-436 cells assessed as inhibition of cell growth incubated for 24 hrs in presence of foetal bovine serum by MTT assay; format: functional, cell-based; conditions: MDA-MB-436, 24 h
# [29] = tested on: HeLa; assay: Antiproliferative activity against human HeLa cells assessed as inhibition of cell growth incubated for 24 hrs by MTT assay; format: functional, cell-based
# [30] = tested on: MDA-MB-231; assay: Antiproliferative activity against human MDA-MB-231 cells assessed as inhibition of cell growth incubated for 24 hrs by MTT assay; format: functional, cell-based; conditions: MDA-MB-231, 24 h
# [31] = tested on: MCF7; assay: Antiproliferative activity against human MCF7 cells assessed as inhibition of cell growth incubated for 24 hrs by MTT assay; format: functional, cell-based; conditions: MCF7, 24 h
# [32] = tested on: A549; assay: Antiproliferative activity against human A549 cells assessed as inhibition of cell growth incubated for 24 hrs by MTT assay; format: functional, cell-based; conditions: A549, 24 h
# [33] = tested on: MDA-MB-231; assay: Antiproliferative activity against human MDA-MB-231 cells assessed as inhibition of cell proliferation incubated for 24 hrs by CCK-8 assay; format: functional, cell-based; conditions: MDA-MB-231, 24 h
# [34] = tested on: MCF7; assay: Antiproliferative activity against human MCF7 cells assessed as inhibition of cell proliferation incubated for 24 hrs by CCK-8 assay; format: functional, cell-based; conditions: MCF7, 24 h
# [35] = tested on: HCT-8; assay: Antiproliferative activity against human HCT-8 cells assessed as inhibition of cell proliferation incubated for 24 hrs by CCK-8 assay; format: functional, cell-based; conditions: HCT-8, 24 h
# [36] = tested on: HeLa; assay: Antiproliferative activity against human HeLa cells assessed as inhibition of cell proliferation incubated for 24 hrs by CCK-8 assay; format: functional, cell-based
# [37] = Cytotoxicity against human MCF-10A cells assessed as inhibition of cell proliferation incubated for 24 hrs by CCK-8 assay; format: toxicity, cell-based
# [38] = tested on: MG-63; assay: Antiproliferative activity against human MG-63 cells incubated for 24 hrs by MTT assay; format: functional, cell-based; conditions: MG-63, 24 h
# [39] = tested on: MDA-MB-231; assay: Antiproliferative activity against human MDA-MB-231 cells incubated for 24 hrs by MTT assay; format: functional, cell-based; conditions: MDA-MB-231, 24 h
# [40] = Cytotoxicity against human L02 incubated for 24 hrs by MTT assay; format: toxicity, cell-based; conditions: L02 cells
# [41] = Cytotoxicity against African green monkey Vero cells incubated for 24 hrs by MTT assay; format: toxicity, cell-based, Chlorocebus sabaeus
# [42] = Cytotoxicity against human MCF-10A incubated for 24 hrs by MTT assay; format: toxicity, cell-based; conditions: MCF-10A cells
# [43] = Cytotoxicity against human skin fibroblast cells assessed as reduction in cell viability incubated for 72 hrs by MTT assay; format: toxicity, cell-based
# [44] = tested on: MCF7; assay: Anticancer activity against human MCF7 cells incubated for 72 hrs by MTT assay; format: functional, cell-based; conditions: MCF7, 72 h
# [45] = tested on: Fibroblast; assay: Cytotoxicity against human skin fibroblast cells incubated for 72 hrs by MTT assay; format: functional, cell-based
# [46] = tested on: SK-BR-3; assay: Antiproliferative activity against human SK-BR-3 cells assessed as inhibition of cell growth incubated for 24 hrs in presence of foetal bovine serum by MTT assay; format: functional, cell-based; conditions: SK-BR-3, 24 h
# [47] = tested on: HeLa; assay: cells; conditions: Homo sapiens, 24 h
compound,measurement,setting,value
CC(C)=CC[C@@H](O)C1=CC(=O)c2c(O)ccc(O)c2C1=O [SHIKONIN],IC50,[1],3.72 µM
same,IC50,[2],30.2 µM
same,IC50,[3],760 nM
same,IC50,[4],580 nM
same,IC50,[5],1800 nM
same,IC50,[6],1710 nM
same,IC50,[7],2820 nM
same,IC50,[8],1290 nM
same,IC50 at 24 h,[9],10.5 µM
same,IC50,[10],460 nM
same,IC50,[11],420 nM
same,IC50 at 24 h,[12],3.26 µM
same,IC50,[13],15.2 µM
same,IC50,[14],920 nM
same,IC50,[15],2200 nM
same,IC50,[16],2510 nM
same,IC50,[17],65.3 µM
same,IC50,[18],9.36 µM
same,IC50,[19],10.1 µM
same,IC50 at 24 h,[20],6.76 µM
same,IC50,[21],4.57 µM
same,IC50,[22],2880 nM
same,IC50,[23],3.28 µM
same,IC50 at 24 h,[24],23.5 µM
same,IC50,[25],11.7 µM
same,IC50 at 24 h,[26],10.5 µM
same,IC50 at 24 h,[27],9.27 µM
same,IC50,[28],3.61 µM
same,IC50,[29],6.5 µM
same,IC50,[30],8.98 µM
same,IC50,[31],7.75 µM
same,IC50,[32],10.4 µM
same,IC50,[33],7.62 µM
same,IC50,[34],9.32 µM
same,IC50,[35],9.2 µM
same,IC50,[36],11.1 µM
same,IC50 at 24 h,[37],20.9 µM
same,IC50,[38],7.36 µM
same,IC50,[39],108 µM
same,IC50 at 24 h,[40],83.8 µM
same,IC50 at 24 h,[41],6.76 µM
same,IC50 at 24 h,[42],93.4 µM
same,IC50 at 72 h,[43],1200 nM
same,IC50,[44],2110 nM
same,IC50,[45],1240 nM
same,IC50,[46],3.75 µM
same,IC50,[47],4.8 µM
